# In patent US10550112B2, “Pyrimidines as EGFR inhibitors and methods of treating disorders” (Dana-Farber Cancer Institute, Inc., priority 2015, dated 2020):
# What was measured:
# Format in all cases: cell-based, Murine
# [1] = target: EGFR wild type Ba/F3 cell line (Homo sapiens, UniProt P00533, cells depend on it, form not given); test: Ba/F3 cell proliferation MTS assay, EGFR wild type; settings: 72 hours
# [2] = target: EGFR InsGY Ba/F3 cell line (Homo sapiens, UniProt P00533, DELINS770-770GY, cells depend on it); test: Ba/F3 cell proliferation MTS assay, EGFR InsGY; settings: EGFR InsGY (D770delinsGY) Ba/F3 cells, 72 hours
# EGFR InsGY Ba/F3 cell line, sequence (P00533 with tags, fused parts or gaps DELINS770-770GY): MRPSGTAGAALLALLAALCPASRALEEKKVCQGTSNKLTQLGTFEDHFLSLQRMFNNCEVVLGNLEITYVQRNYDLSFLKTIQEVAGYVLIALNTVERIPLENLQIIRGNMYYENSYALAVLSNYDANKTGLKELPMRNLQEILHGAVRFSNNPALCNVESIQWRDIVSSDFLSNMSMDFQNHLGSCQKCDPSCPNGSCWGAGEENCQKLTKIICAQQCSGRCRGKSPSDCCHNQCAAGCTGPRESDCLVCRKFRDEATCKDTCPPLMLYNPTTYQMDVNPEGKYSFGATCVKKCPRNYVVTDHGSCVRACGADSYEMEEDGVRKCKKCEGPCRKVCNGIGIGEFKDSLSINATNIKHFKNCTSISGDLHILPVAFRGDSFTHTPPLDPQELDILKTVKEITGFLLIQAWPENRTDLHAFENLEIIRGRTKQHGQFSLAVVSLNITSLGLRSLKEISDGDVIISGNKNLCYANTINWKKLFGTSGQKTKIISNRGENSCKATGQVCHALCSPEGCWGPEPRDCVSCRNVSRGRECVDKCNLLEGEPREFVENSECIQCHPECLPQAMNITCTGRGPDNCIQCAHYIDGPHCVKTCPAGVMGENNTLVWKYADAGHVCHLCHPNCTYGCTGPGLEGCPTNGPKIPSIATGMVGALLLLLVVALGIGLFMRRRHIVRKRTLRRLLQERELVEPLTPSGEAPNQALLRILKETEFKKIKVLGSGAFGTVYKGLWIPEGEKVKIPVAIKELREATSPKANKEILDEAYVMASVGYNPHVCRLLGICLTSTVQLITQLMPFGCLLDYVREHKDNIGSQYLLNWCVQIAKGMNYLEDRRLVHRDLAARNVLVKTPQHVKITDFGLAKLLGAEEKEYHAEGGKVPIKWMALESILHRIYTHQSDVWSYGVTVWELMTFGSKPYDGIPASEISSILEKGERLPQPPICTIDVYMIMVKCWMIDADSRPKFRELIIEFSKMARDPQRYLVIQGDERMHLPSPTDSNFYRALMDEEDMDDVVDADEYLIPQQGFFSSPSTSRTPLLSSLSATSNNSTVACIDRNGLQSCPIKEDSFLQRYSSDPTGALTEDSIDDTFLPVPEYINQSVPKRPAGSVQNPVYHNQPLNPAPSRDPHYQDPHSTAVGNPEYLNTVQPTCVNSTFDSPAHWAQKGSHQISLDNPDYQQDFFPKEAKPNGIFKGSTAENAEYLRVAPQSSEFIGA
# Experimental: (§1) Different EGFR exon 20 insertion mutations were introduced via site directed mutagenesis into full length EGFR using the Quick Change Site-Directed Mutagenesis kit (Stratagene; La Jolla, Calif.) according to the manufacturer's instructions. All constructs were confirmed by DNA sequencing. The constructs were shuttled into the retroviral vector JP1540 using the BD Creator™ System (BD Biosciences). […] Stable clones were obtained by selection in puromycin (2 μg/ml) and growth in IL-3 free media.
# (§2) Murine Ba/F3 cells engineered to express mutant and wild type EGFR or HER2 protein were used to perform single drug screens. Cell viability was assessed after 72 hours of compound exposure using the colorimetric cell proliferation MTS assay kit (Promega).
# (§3) The curves were fitted using a non-linear regression model with a sigmoidal dose response.
# [3] = target: EGFR InsSVD Ba/F3 cell line (Homo sapiens, UniProt P00533, DUP768-770, cells depend on it); test: Ba/F3 cell proliferation MTS assay, EGFR InsSVD; settings: EGFR InsSVD (D770_N771insSVD) Ba/F3 cells, 72 hours
# Experimental: as §1, §2, §3
# [4] = target: EGFR InsASV Ba/F3 cell line (Homo sapiens, UniProt P00533, DUP767-769, cells depend on it); test: Ba/F3 cell proliferation MTS assay, EGFR InsASV; settings: EGFR InsASV (V769_D770insASV) Ba/F3 cells, 72 hours
# EGFR InsASV Ba/F3 cell line, sequence (P00533 with tags, fused parts or gaps DUP767-769): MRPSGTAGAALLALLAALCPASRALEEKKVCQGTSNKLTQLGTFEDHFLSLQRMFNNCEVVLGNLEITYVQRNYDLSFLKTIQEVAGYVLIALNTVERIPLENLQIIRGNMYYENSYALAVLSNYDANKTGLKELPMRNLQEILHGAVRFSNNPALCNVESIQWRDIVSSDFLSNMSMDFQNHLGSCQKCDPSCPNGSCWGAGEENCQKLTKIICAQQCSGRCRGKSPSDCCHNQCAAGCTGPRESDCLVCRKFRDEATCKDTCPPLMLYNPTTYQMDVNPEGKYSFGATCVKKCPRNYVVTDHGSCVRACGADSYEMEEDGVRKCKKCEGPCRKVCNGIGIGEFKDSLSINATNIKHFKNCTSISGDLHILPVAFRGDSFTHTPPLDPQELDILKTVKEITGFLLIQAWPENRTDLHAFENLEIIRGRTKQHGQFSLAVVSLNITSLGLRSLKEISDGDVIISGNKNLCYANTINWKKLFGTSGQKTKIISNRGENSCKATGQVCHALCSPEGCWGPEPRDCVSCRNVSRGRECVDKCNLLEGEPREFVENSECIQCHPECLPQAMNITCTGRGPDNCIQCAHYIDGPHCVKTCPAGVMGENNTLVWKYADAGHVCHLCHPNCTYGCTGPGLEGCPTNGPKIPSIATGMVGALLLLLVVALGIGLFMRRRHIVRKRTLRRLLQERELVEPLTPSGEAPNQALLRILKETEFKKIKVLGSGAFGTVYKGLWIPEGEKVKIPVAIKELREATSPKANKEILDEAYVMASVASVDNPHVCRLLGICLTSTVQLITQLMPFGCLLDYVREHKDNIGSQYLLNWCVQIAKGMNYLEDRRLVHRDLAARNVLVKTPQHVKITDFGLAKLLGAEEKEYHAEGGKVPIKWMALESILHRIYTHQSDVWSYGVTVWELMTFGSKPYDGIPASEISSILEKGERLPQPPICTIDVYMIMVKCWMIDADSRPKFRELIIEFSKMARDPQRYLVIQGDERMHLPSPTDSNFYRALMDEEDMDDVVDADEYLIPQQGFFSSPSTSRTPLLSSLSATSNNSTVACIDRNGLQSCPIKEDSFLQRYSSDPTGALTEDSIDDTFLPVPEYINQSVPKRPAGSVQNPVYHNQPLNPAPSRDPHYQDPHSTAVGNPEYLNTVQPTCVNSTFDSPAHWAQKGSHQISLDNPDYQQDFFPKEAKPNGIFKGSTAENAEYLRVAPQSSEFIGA
# Experimental: as §1, §2, §3
# [5] = target: HER2 wild type Ba/F3 cell line (Homo sapiens, UniProt P04626); test: Ba/F3 cell proliferation MTS assay, HER2 wild type; settings: HER2 wild type Ba/F3 cells, 72 hours
# HER2 wild type Ba/F3 cell line, sequence (P04626 whole entry, stated change not applied): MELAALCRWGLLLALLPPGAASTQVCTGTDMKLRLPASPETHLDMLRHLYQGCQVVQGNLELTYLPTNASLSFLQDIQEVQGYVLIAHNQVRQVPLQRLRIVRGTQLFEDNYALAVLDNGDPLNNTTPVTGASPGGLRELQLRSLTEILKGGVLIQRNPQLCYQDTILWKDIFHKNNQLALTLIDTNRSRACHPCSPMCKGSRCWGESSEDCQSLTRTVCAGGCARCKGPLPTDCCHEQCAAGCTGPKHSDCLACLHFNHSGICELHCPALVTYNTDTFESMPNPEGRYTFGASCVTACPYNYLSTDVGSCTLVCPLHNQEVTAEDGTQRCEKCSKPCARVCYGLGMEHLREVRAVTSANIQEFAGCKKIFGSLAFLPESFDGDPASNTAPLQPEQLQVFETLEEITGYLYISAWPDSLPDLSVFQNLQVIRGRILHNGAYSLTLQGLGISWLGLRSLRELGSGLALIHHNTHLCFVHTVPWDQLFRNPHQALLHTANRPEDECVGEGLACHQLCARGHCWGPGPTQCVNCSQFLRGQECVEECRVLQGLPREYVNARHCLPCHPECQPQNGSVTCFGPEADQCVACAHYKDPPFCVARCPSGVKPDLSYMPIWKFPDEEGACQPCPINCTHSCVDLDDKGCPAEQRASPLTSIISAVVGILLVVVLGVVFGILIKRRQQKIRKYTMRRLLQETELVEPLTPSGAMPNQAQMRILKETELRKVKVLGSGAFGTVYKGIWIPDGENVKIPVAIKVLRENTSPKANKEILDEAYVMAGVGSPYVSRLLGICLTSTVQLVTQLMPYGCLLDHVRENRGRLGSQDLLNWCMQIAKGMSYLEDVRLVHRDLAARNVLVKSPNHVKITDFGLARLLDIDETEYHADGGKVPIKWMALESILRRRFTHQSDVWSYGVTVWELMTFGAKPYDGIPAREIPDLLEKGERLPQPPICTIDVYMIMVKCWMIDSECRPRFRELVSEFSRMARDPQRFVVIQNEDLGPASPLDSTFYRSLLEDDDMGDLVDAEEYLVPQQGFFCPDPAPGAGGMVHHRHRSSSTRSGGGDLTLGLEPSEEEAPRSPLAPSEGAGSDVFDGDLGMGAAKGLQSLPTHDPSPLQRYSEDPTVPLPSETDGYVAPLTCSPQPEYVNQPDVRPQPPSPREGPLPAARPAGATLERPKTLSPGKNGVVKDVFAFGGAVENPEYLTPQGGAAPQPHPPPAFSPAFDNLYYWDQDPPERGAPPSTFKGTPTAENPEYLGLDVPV
# Experimental: as §2, §3
# [6] = target: HER2 InsYVMA Ba/F3 cell line (Homo sapiens, UniProt P04626, DUP772-775, cells depend on it); test: Ba/F3 cell proliferation MTS assay, HER2 InsYVMA; settings: 72 hours;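 note: murine Ba/F3 cells engineered to carry mutant HER2, viability read colorimetrically by MTS after 72 h of exposure, EC50 from sigmoidal non-linear regression of dose response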
# HER2 InsYVMA Ba/F3 cell line, sequence (P04626 with tags, fused parts or gaps DUP772-775): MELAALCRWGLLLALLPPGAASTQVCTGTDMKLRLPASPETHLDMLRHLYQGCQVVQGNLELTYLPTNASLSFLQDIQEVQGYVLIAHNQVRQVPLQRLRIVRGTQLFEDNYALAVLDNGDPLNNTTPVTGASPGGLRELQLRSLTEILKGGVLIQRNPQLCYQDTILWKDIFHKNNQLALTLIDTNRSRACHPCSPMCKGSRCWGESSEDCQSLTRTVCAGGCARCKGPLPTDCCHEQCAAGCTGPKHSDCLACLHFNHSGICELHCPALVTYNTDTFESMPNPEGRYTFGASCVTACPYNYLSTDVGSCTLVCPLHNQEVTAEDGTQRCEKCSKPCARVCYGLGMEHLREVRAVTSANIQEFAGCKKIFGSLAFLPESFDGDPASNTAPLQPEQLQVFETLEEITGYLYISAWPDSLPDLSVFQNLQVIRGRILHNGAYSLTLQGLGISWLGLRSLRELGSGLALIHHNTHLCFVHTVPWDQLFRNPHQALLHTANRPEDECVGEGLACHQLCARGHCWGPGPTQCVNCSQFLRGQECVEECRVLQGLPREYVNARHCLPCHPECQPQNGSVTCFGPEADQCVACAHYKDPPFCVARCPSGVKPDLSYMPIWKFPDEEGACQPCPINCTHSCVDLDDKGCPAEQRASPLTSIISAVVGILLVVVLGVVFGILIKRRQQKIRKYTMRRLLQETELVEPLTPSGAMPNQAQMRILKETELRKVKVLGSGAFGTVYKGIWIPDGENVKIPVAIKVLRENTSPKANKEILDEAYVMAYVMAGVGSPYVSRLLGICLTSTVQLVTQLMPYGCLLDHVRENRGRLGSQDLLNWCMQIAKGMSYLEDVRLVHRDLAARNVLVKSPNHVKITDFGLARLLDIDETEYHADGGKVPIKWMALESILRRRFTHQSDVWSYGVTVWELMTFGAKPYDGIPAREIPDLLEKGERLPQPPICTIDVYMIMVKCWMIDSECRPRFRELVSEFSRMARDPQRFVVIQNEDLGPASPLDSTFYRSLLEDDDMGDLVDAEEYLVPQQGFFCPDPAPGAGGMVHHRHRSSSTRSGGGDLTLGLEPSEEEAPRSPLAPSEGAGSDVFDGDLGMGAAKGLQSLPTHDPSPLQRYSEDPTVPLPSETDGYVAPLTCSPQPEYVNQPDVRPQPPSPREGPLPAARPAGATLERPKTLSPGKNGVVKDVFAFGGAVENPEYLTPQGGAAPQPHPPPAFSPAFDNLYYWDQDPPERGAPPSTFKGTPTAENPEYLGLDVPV
# Experimental: as §2, §3
EC50 [1],EC50 [2],EC50 [3],EC50 [4],EC50 [5],EC50 [6],Compound
< 100 nM,< 100 nM,< 100 nM,100 to 500 nM,< 100 nM,< 100 nM,"C=CC(=O)Nc1cccc(N(C(=O)OCc2ccccc2)c2ccnc(Nc3ccn(C)n3)n2)c1 [Compound I-1, benzyl (3-acrylamidophenyl)(2-((1-methyl-1H-pyrazol-3-yl)amino)pyrimidin-4-yl)carbamate]"
< 100 nM,< 100 nM,< 100 nM,–,< 100 nM,100 to 500 nM,"C=CC(=O)Nc1cccc(N(C(=O)OCc2cccc(F)c2)c2ccnc(Nc3ccn(C)n3)n2)c1 [Compound I-2, 3-fluorobenzyl (3-acrylamidophenyl)(2-((1-methyl-1H-pyrazol-3-yl)amino)pyrimidin-4-yl)carbamate]"
< 100 nM,< 100 nM,< 100 nM,–,< 100 nM,< 100 nM,"C=CC(=O)Nc1cccc(N(C(=O)OCc2cccc(F)c2)c2ccnc(Nc3cnn(C)c3)n2)c1 [Compound I-3, 3-fluorobenzyl (3-acrylamidophenyl)(2-((1-methyl-1H-pyrazol-4-yl)amino)pyrimidin-4-yl)carbamate]"
< 100 nM,< 100 nM,< 100 nM,–,< 100 nM,< 100 nM,"C=CC(=O)Nc1cccc(N(C(=O)OCc2ccc(F)cc2)c2ccnc(Nc3ccn(C)n3)n2)c1 [Compound I-4, 4-fluorobenzyl (3-acrylamidophenyl)(2-((1-methyl-1H-pyrazol-3-yl)amino)pyrimidin-4-yl)carbamate]"
< 100 nM,< 100 nM,< 100 nM,–,< 100 nM,< 100 nM,"C=CC(=O)Nc1cccc(N(C(=O)OCc2ccc(F)cc2)c2ccnc(Nc3cnn(C)c3)n2)c1 [Compound I-5, 4-fluorobenzyl (3-acrylamidophenyl)(2-((1-methyl-1H-pyrazol-4-yl)amino)pyrimidin-4-yl)carbamate]"
500 to 1000 nM,100 to 500 nM,500 to 1000 nM,–,500 to 1000 nM,> 1000 nM,"C=CC(=O)Nc1cccc(N(C(=O)OCc2cc3ccccc3s2)c2ccnc(Nc3ccn(C)n3)n2)c1 [Compound I-6, benzo[b]thiophen-2-ylmethyl (3-acrylamidophenyl)(2-((1-methyl-1H-pyrazol-3-yl)amino)pyrimidin-4-yl)carbamate]"
100 to 500 nM,< 100 nM,100 to 500 nM,–,100 to 500 nM,500 to 1000 nM,"C=CC(=O)Nc1cccc(N(C(=O)OCc2cc3ccccc3s2)c2ccnc(Nc3cnn(C)c3)n2)c1 [Compound I-7, benzo[b]thiophen-2-ylmethyl (3-acrylamidophenyl)(2-((1-methyl-1H-pyrazol-4-yl)amino)pyrimidin-4-yl)carbamate]"
100 to 500 nM,100 to 500 nM,> 1000 nM,> 1000 nM,100 to 500 nM,> 1000 nM,"C=CC(=O)Nc1cccc(N(C(=O)OCc2ccc(Cl)cc2)c2ccnc(Nc3ccn(C)n3)n2)c1 [Compound I-8, 4-chlorobenzyl (3-acrylamidophenyl)(2-((1-methyl-1H-pyrazol-3-yl)amino)pyrimidin-4-yl)carbamate]"
100 to 500 nM,500 to 1000 nM,500 to 1000 nM,> 1000 nM,500 to 1000 nM,–,"C=CC(=O)Nc1cccc(N(C(=O)O[C@H](C)c2ccc(F)cc2)c2ccnc(Nc3ccn(C)n3)n2)c1 [Compound I-14, (R)-1-(4-fluorophenyl)ethyl (3-acrylamidophenyl)(2-((1-methyl-1H-pyrazol-3-yl)amino)pyrimidin-4-yl)carbamate]"
> 1000 nM,> 1000 nM,–,–,> 1000 nM,–,"C=CC(=O)Nc1cccc(N(C(=O)OCc2csc3ccccc23)c2ccnc(Nc3ccn(C)n3)n2)c1 [Compound I-18, benzo[b]thiophen-3-ylmethyl (3-acrylamidophenyl)(2-((1-methyl-1H-pyrazol-3-yl)amino)pyrimidin-4-yl)carbamate]"
< 100 nM,< 100 nM,100 to 500 nM,–,< 100 nM,< 100 nM,"C=CC(=O)Nc1cccc(N(C(=O)OCc2ccc(F)cc2)c2ccnc(Nc3cnn(CCN4CCOCC4)c3)n2)c1 [Compound I-20, 4-fluorobenzyl (3-acrylamidophenyl)(2-((1-(2-morpholinoethyl)-1H-pyrazol-4-yl)amino)pyrimidin-4-yl)carbamate]"
< 100 nM,< 100 nM,< 100 nM,–,< 100 nM,< 100 nM,"C=CC(=O)Nc1cccc(N(C(=O)OCc2ccc(F)cc2)c2ccnc(Nc3cnn(C)c3C)n2)c1 [Compound I-22, 4-fluorobenzyl (3-acrylamidophenyl)(2-((1,5-dimethyl-1H-pyrazol-4-yl)amino)pyrimidin-4-yl)carbamate]"
< 100 nM,100 to 500 nM,100 to 500 nM,–,< 100 nM,100 to 500 nM,"C=CC(=O)Nc1cccc(N(C(=O)OCc2ccc(F)cc2)c2ccnc(Nc3cnn(C)c3C(F)(F)F)n2)c1 [Compound I-23, 4-fluorobenzyl (3-acrylamidophenyl)(2-((1-methyl-5-(trifluoromethyl)-1H-pyrazol-4-yl)amino)pyrimidin-4-yl)carbamate]"
< 100 nM,100 to 500 nM,500 to 1000 nM,–,< 100 nM,< 100 nM,"Cn1cc(Nc2nccc(N(C(=O)OCc3ccc(F)cc3)c3cccc(NC(=O)/C=C/CN4CCCCC4)c3)n2)cn1 [Compound I-24, 4-fluorobenzyl (E)-(2-((1-methyl-1H-pyrazol-4-yl)amino)pyrimidin-4-yl)(3-(4-(piperidin-1-yl)but-2-enamido)phenyl)carbamate]"
100 to 500 nM,–,–,–,100 to 500 nM,> 1000 nM,"Cn1cc(Nc2nccc(N(C(=O)OCc3ccc(F)cc3)c3cccc(NC(=O)/C=C/CN4CCC(O)CC4)c3)n2)cn1 [Compound I-25, 4-fluorobenzyl (E)-(3-(4-(4-hydroxypiperidin-1-yl)but-2-enamido)phenyl)(2-((1-methyl-1H-pyrazol-4-yl)amino)pyrimidin-4-yl)carbamate]"
< 100 nM,100 to 500 nM,500 to 1000 nM,–,< 100 nM,100 to 500 nM,"Cn1cc(Nc2nccc(N(C(=O)OCc3ccc(F)cc3)c3cccc(NC(=O)/C=C/CN4CCOCC4)c3)n2)cn1 [Compound I-26, 4-fluorobenzyl (E)-(2-((1-methyl-1H-pyrazol-4-yl)amino)pyrimidin-4-yl)(3-(4-morpholinobut-2-enamido)phenyl)carbamate]"
< 100 nM,500 to 1000 nM,500 to 1000 nM,–,< 100 nM,< 100 nM,"Cn1cc(Nc2nccc(N(C(=O)OCc3ccc(F)cc3)c3cccc(NC(=O)/C=C/CN4CCCCCC4)c3)n2)cn1 [Compound I-27, 4-fluorobenzyl (E)-(3-(4-(azepan-1-yl)but-2-enamido)phenyl)(2-((1-methyl-1H-pyrazol-4-yl)amino)pyrimidin-4-yl)carbamate]"
< 100 nM,500 to 1000 nM,> 1000 nM,–,< 100 nM,< 100 nM,"CN(C)C/C=C/C(=O)Nc1cccc(N(C(=O)OCc2ccc(F)cc2)c2ccnc(Nc3cnn(C)c3)n2)c1 [Compound I-28, 4-fluorobenzyl (E)-(3-(4-(dimethylamino)but-2-enamido)phenyl)(2-((1-methyl-1H-pyrazol-4-yl)amino)pyrimidin-4-yl)carbamate]"
< 100 nM,< 100 nM,< 100 nM,–,< 100 nM,< 100 nM,"C=CC(=O)Nc1cccc(N(C(=O)OCc2ccc(F)cc2F)c2ccnc(Nc3cnn(C)c3)n2)c1 [Compound I-29, 2,4-difluorobenzyl (3-acrylamidophenyl)(2-((1-methyl-1H-pyrazol-4-yl)amino)pyrimidin-4-yl)carbamate]"
< 100 nM,< 100 nM,< 100 nM,–,< 100 nM,< 100 nM,"C=CC(=O)Nc1cccc(N(C(=O)OCc2ccc(F)cc2)c2ccnc(Nc3cnn(C4CCN(C)CC4)c3)n2)c1 [Compound I-30, 4-fluorobenzyl (3-acrylamidophenyl)(2-((1-(1-methylpiperidin-4-yl)-1H-pyrazol-4-yl)amino)pyrimidin-4-yl)carbamate]"
< 100 nM,100 to 500 nM,100 to 500 nM,–,< 100 nM,< 100 nM,"C=CC(=O)Nc1cccc(N(C(=O)OCc2ccc(F)cc2)c2ccnc(Nc3cnn(CC(=O)NC)c3)n2)c1 [Compound I-31, 4-fluorobenzyl (3-acrylamidophenyl)(2-((1-(2-(methylamino)-2-oxoethyl)-1H-pyrazol-4-yl)amino)pyrimidin-4-yl)carbamate]"
< 100 nM,< 100 nM,< 100 nM,–,< 100 nM,< 100 nM,"C=CC(=O)Nc1cccc(N(C(=O)OCc2ccc(F)cc2)c2ccnc(Nc3cnn(C4CCN(C)C4)c3)n2)c1 (stereo not drawn) [Compound I-32, 4-fluorobenzyl (3-acrylamidophenyl)(2-((1-(1-methylpyrrolidin-3-yl)-1H-pyrazol-4-yl)amino)pyrimidin-4-yl)carbamate]"
